Results: ChEMBL document CHEMBL5120857, “Rational design, synthesis and biological evaluation of dual PARP-1/2 and TNKS1/2 inhibitors for cancer therapy” (Eur J Med Chem, 2022)
Each block holds one compound with its values, some of them ahead of it. The source made the active and inactive calls. The calls are words filed in the database; no cut-off is given here.

What was measured:
[1] = target: T1, Poly [ADP-ribose] polymerase 1 (Homo sapiens, UniProt P09874); conditions: dose 10.0 nM, time 45.0 min
T1 sequence (P09874 whole entry): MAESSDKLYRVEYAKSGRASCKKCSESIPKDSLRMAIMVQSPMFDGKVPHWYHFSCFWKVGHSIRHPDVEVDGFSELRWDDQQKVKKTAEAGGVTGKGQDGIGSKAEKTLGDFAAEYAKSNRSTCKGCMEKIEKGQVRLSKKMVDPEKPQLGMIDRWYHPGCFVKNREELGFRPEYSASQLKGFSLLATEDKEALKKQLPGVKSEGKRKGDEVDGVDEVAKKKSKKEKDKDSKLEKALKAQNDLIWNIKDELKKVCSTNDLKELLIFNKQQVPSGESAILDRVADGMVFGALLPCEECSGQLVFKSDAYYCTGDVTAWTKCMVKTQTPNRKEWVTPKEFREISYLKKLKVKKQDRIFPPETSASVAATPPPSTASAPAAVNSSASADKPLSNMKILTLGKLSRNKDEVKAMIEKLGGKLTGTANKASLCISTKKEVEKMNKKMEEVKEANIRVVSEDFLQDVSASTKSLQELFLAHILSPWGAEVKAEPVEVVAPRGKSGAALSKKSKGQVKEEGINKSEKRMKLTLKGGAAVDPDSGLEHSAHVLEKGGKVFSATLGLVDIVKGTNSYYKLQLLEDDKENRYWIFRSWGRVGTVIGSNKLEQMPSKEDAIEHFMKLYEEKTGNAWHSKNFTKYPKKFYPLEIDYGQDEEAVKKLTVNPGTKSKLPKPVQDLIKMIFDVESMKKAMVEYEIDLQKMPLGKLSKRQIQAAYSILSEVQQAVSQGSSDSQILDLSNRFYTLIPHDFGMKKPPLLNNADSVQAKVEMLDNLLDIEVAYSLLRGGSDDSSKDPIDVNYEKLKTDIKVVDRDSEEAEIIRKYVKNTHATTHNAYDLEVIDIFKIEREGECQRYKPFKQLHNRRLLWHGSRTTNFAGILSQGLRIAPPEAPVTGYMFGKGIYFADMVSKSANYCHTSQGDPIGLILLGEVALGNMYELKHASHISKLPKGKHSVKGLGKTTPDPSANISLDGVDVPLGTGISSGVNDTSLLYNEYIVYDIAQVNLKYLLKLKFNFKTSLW

[2] = target: T2, Poly [ADP-ribose] polymerase tankyrase-2 (Homo sapiens) (UniProt Q9H2K2); conditions: dose 10.0 nM, time 1.0 hrs
T2 sequence (whole entry): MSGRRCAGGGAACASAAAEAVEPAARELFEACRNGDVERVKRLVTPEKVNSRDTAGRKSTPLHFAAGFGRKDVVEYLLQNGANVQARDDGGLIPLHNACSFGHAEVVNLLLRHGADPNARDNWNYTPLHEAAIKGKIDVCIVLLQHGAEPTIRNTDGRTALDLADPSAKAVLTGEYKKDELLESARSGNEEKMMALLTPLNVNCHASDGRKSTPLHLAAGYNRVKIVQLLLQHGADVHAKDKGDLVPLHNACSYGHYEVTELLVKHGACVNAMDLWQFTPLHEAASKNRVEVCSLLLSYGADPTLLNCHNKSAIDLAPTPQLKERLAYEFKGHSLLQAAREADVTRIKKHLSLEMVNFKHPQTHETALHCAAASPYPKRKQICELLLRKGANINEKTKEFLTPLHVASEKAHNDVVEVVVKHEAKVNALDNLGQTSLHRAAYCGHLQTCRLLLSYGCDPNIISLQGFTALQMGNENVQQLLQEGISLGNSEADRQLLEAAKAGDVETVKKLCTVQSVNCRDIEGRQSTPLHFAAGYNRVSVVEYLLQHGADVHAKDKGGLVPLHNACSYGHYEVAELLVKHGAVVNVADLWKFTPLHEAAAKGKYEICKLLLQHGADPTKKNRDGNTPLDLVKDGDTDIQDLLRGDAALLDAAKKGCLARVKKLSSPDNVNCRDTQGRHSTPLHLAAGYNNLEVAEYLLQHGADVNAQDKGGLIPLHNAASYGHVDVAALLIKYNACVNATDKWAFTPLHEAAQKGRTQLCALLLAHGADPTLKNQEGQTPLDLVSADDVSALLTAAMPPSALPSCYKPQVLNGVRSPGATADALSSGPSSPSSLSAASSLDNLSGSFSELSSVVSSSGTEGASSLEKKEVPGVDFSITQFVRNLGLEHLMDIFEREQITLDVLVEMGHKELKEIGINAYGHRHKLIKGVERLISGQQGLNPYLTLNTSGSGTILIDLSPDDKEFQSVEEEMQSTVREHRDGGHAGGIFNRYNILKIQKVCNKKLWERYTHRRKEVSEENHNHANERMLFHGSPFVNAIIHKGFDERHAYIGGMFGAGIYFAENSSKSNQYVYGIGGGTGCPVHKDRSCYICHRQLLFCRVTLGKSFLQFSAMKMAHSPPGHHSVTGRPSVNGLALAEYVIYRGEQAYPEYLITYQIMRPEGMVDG

MDA-MB-468 = assay: Antiproliferative activity against human MDA-MB-468 cells assessed as inhibition of cell growth incubated for 7 days by MTT assay; type: functional, cell-based; conditions: MDA-MB-468, 168 h
[3] = target: T3, Poly [ADP-ribose] polymerase tankyrase-2 (Homo sapiens, UniProt Q9H2K2); assay: Inhibition of TNKS2 (unknown origin) using biotin-NAD+ as substrate incubated for 1 hr in the presence of deoxy-oligonucleotide by ELISA analysis relative to control
T3 sequence (Q9H2K2 whole entry): T2 sequence (whole entry)

[4] = Cytotoxicity against mouse AML12 cells assessed as reduction in cell viability incubated for 7 days by MTT assay; type: toxicity, cell-based; conditions: time 7 day
[5] = target: T1, Poly [ADP-ribose] polymerase 1; assay: Inhibition of PARP-1 (unknown origin) using biotinylated NAD+ as substrate incubated for 45 mins in the presence of deoxy-oligonucleotide by microplate reader method relative to control
MDA-MB-231 = assay: Antiproliferative activity against human MDA-MB-231 cells assessed as inhibition of cell growth incubated for 7 days by MTT assay; type: functional, cell-based; conditions: MDA-MB-231, 168 h
[6] = target: T4, Poly [ADP-ribose] polymerase tankyrase-1 (Homo sapiens, UniProt O95271); assay: Inhibition of TNKS1 (unknown origin) using biotin-NAD+ as substrate incubated for 1 hr in the presence of deoxy-oligonucleotide by ELISA analysis relative to control
T4 sequence (O95271 whole entry): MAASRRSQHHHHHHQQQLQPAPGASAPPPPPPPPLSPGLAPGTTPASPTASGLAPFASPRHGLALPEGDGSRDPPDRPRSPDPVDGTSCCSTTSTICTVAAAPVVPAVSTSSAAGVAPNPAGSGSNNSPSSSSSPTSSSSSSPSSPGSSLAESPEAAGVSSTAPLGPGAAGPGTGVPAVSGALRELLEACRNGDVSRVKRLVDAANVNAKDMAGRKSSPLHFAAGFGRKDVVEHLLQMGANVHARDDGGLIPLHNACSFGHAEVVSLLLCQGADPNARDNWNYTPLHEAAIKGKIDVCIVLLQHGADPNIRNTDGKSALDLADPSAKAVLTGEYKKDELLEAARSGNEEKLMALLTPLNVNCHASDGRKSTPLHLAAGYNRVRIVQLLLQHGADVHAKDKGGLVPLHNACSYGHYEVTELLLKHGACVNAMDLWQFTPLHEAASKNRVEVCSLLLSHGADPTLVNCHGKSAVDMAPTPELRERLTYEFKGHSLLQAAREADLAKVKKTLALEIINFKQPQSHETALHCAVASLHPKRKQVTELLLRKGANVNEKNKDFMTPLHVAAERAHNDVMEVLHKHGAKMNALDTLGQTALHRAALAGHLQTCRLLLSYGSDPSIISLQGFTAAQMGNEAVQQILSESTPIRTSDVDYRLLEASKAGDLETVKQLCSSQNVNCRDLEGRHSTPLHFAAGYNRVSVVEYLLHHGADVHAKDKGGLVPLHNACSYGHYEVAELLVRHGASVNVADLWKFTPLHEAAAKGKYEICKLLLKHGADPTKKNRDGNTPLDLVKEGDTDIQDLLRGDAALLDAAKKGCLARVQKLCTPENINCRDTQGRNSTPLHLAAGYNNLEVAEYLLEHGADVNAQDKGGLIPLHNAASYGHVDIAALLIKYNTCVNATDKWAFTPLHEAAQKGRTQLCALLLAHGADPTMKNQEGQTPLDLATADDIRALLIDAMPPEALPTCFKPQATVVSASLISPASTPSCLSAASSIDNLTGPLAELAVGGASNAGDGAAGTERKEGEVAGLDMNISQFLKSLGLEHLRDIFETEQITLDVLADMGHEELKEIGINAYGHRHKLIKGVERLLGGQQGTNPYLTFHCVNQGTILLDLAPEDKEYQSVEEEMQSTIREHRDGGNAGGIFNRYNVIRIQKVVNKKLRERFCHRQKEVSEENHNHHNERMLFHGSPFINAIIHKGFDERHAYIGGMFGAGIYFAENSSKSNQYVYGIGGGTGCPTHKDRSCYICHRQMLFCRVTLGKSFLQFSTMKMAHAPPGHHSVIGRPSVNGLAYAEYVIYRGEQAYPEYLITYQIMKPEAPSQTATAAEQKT

[7] = target: T5, Poly [ADP-ribose] polymerase tankyrase-1 (Homo sapiens) (UniProt O95271); conditions: dose 10.0 nM, time 1.0 hrs
T5 sequence (whole entry): T4 sequence (O95271 whole entry)

HCT-116 [8] = assay: Antiproliferative activity against human HCT-116 cells assessed as inhibition of cell growth incubated for 7 days by MTT assay; type: functional, cell-based; conditions: HCT-116, 168 h
HCT-116 [9] = assay: Induction of cell cycle arrest in human HCT-116 cells assessed as G2/M phase cells at 5 uM incubated for 3 days by propidium iodide staining based flow cytometry (reference value: 68.35 %); type: functional; conditions: time 3 day
HCT-116 [10] = assay: Induction of cell cycle arrest in human HCT-116 cells assessed as S phase cells at 5 uM incubated for 3 days by propidium iodide staining based flow cytometry (reference value: 11.26 %); type: functional; conditions: time 3 day
HCT-116 [11] = assay: Induction of apoptosis in human HCT-116 cells assessed as necrotic cells at 5 uM incubated for 3 days by annexinV-FITC/propidium iodide staining based flow cytometry (reference value: 3.65 %); type: functional; conditions: time 3 day
HCT-116 [12] = assay: Antitumor activity against human HCT-116 cells xenografted in BALB/c nude mouse assessed as tumor growth inhibition at 50 mg/kg, ip administered once daily for 28 days; type: functional; conditions: time 28 day
HCT-116 [13] = assay: Inhibition of PARP in human HCT-116 cells assessed as decrease in pADPr levels at 10 uM by Western blot analysis; type: cell-based
HCT-116 [14] = assay: Induction of apoptosis in human HCT-116 cells assessed as late apoptotic cells at 5 uM incubated for 3 days by annexinV-FITC/propidium iodide staining based flow cytometry (reference value: 8.71 %); type: functional; conditions: time 3 day
HCT-116 [15] = assay: Induction of cell cycle arrest in human HCT-116 cells assessed as G0/G1 phase cells at 5 uM incubated for 3 days by propidium iodide staining based flow cytometry (reference value: 68.35 %); type: functional; conditions: time 3 day
HCT-116 [16] = assay: Induction of apoptosis in human HCT-116 cells assessed as early apoptotic cells at 5 uM incubated for 3 days by annexinV-FITC/propidium iodide staining based flow cytometry (reference value: 7.67 %); type: functional; conditions: time 3 day
HCT-116 [17] = assay: Induction of apoptosis in human HCT-116 cells assessed as viable cells at 5 uM incubated for 3 days by annexinV-FITC/propidium iodide staining based flow cytometry (reference value: 60.0 %); type: functional; conditions: time 3 day
HCT-116 [18] = assay: Inhibition of Wnt/beta-Catenin signaling in human HCT-116 cells assessed as increase in axin2 levels at 10 uM by Western blot analysis; type: cell-based
HCT-116 [19] = assay: Inhibition of Wnt/beta-Catenin signaling in human HCT-116 cells assessed as decrease in cyclin D1 levels at 10 uM by Western blot analysis; type: cell-based

SMILES: COc1ccc(NC(=O)C2CCN(CC(=O)N3CCN(C(=O)c4cc(Cc5n[nH]c(=O)c6ccccc56)ccc4F)CC3)CC2)cc1
inhibition [1]: 98%

SMILES: O=C(Nc1cccc2cccnc12)c1ccc(NC(=O)N2CCN(C(=O)c3cc(Cc4n[nH]c(=O)c5ccccc45)ccc3F)CC2)cc1
inhibition [1]: 96%
inhibition [2]: 28%

SMILES: O=c1[nH]nc2c3c(cccc13)N=C(CN1Cc3ccccc3C1)N2 [2X-121]
IC50 (MDA-MB-468): 4170 nM
Activity (HCT-116 [9]): 23.49%
Activity (HCT-116 [10]): 11.73%
CC50 at 168 h [4]: 1390 nM
Activity (HCT-116 [11]): 6.45%
inhibition in vivo at 50 mg/kg (HCT-116 [12]; Mus musculus, HCT-116, 672 h, read-out: TGI): 20.2%
inhibition (HCT-116 [13]): Active
inhibition (HCT-116 [18]): Active
Activity (HCT-116 [14]): 12.6%
IC50 (MDA-MB-231): 2890 nM
Activity (HCT-116 [15]): 64.78%
Activity (HCT-116 [16]): 6.11%
viability at 5 µM (HCT-116 [17]; Homo sapiens, HCT-116, 72 h, read-out: Activity): 74.8%
IC50 (HCT-116 [8]): 6710 nM
inhibition (HCT-116 [19]): Active

Further lines, with some results ahead:

inhibition [1]: 99%
inhibition [2]: 29.5%
SMILES: Cc1cccc(NC(=O)c2ccc(NC(=O)N3CCN(C(=O)c4cc(Cc5n[nH]c(=O)c6ccccc56)ccc4F)CC3)cc2)c1

IC50 (MDA-MB-468): 110 nM
IC50 [3]: 171 nM
inhibition [1]: 89%
IC50 [5]: 1.54 nM
IC50 (MDA-MB-231): 960 nM
IC50 [6]: 214 nM
inhibition [7]: 14%
IC50 (HCT-116 [8]): 510 nM
inhibition [2]: 38%
SMILES: O=C(Nc1ccc(F)cc1)c1ccc(NC(=O)N2CCN(C(=O)c3cc(Cc4n[nH]c(=O)c5ccccc45)ccc3F)CC2)cc1
CC50 at 168 h [4]: 37400 nM

IC50 [3]: 367 nM
inhibition [1]: 98%
IC50 [5]: 4.08 nM
IC50 [6]: 551 nM
inhibition [7]: 12.5%
inhibition [2]: 28%
SMILES: O=C(Nc1ccc(C(F)(F)F)cc1)c1ccc(NC(=O)N2CCN(C(=O)c3cc(Cc4n[nH]c(=O)c5ccccc45)ccc3F)CC2)cc1

IC50 (MDA-MB-468): 2520 nM
IC50 (MDA-MB-231): 5350 nM
IC50 (HCT-116 [8]): 5560 nM
SMILES: O=C(c1cc(Cc2n[nH]c(=O)c3ccccc23)ccc1F)N1CCN(C(=O)C2CC2)CC1 [OLAPARIB]
Activity (HCT-116 [9]): 34.23%
Activity (HCT-116 [10]): 7.31%
CC50 at 168 h [4]: 31100 nM
Activity (HCT-116 [11]): 4.03%
TGI (HCT-116 [12]): 15.36%
inhibition (HCT-116 [13]): Active
Activity (HCT-116 [14]): 14.3%
Activity (HCT-116 [15]): 58.46%
Activity (HCT-116 [16]): 12.9%
Activity (HCT-116 [17]): 68.8%
